Reference: PMC10525516, “Novel NADPH Oxidase-2 Inhibitors as Potential Anti-Inflammatory and Neuroprotective Agents” (Antioxidants, 2023)

Assays:
[1] = target: T1, Nox2 (Homo sapiens, UniProt P04839); experiment: CBA probe assay of H2O2 production by PMA-activated dHL60 cells; type: cell-based; settings: PMA (1 µM)-activated dHL60 cells, 30 min preincubation with inhibitor; read-out: IC50, inhibition of H2O2 production, CBA Assay
T1 construct: endogenous in cells
T1 sequence (P04839 2-570 limits assumed): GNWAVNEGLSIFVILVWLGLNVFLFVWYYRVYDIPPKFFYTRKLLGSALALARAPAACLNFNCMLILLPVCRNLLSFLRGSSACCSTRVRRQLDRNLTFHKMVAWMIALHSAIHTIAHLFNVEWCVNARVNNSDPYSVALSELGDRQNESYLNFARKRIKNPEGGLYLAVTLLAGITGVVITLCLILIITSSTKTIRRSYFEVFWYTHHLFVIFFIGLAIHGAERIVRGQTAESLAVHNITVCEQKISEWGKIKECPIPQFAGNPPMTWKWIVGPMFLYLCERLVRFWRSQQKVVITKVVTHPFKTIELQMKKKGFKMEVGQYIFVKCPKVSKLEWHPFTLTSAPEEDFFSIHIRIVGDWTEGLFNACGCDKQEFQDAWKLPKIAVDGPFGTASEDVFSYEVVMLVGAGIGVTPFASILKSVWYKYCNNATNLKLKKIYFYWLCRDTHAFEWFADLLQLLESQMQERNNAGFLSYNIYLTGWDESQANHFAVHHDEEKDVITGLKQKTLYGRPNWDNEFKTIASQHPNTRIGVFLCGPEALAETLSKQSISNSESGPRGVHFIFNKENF
T1 sequence (P13498 2-195 partner limits assumed): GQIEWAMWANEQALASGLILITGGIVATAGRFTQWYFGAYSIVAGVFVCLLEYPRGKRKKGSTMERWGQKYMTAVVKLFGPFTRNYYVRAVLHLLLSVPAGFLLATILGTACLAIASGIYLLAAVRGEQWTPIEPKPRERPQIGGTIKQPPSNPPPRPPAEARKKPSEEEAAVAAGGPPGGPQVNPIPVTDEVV
Experimental: Human promyelocytic leukemia HL60 cells (Sigma-Aldrich) were grown in RPMI 1640 medium (Gibco, 11875-093, Billings, MT, USA) supplemented with 10% FBS (Omega Scientific (Tarzana, CA, USA)), 100 units/mL penicillin, and 100 µg/mL streptomycin, and were incubated at 37 °C and 5% carbon dioxide (CO2). For differentiation to neutrophil-like cells, HL60 cells were pelleted and resuspended in fresh media containing 1 µM of all trans-retinoic acid and incubated for four to five days. Nox2 activation was achieved by treating differentiated HL60 (dHL60) cells with 1 µM PMA [24]. Human leukemia monocytic cells, THP-1, were grown in RPMI 1640 medium + GlutaMAX^TM (Gibco, 61870-036) and supplemented with 10% FBS, 10 mM HEPES, and 1 mM sodium pyruvate and incubated at 37 °C in 5% CO2 environment. To induce differentiation into macrophages, THP-1 cells were treated with PMA (100 ng/mL) for 48 h. To test the efficacy of Nox2 inhibitors, treatment was performed with or without the inhibitor, along with PMA [35].
Plate reader-based analyses of the production of O2^•− and H2O2 by PMA-activated dHL60 cells were performed according to a published protocol with minor modifications. Briefly, for the treatment of dHL60 cells with different concentrations of the compounds, 0.5 mL deep-well 96-well plates were used to dispense and store aliquots of their 10 mM DMSO solutions. Using a Multidrop™ PicoIT dispenser (Thermo Scientific), different volumes of the solutions of candidate Nox inhibitors (10 or 50 mM in DMSO) were injected into the bottom of 0.5 mL V-bottom 96-well plates; then, they were sealed with aluminum foil (VWR, Batavia, IL, USA) using a semiautomatic thermal sealer (BT LabSystems, St. Louis, MO, USA) and stored at −20 °C to reduce freeze-thawing the solutions. The plates with inhibitors were allowed to come to room temperature before the addition of the cell suspensions. dHL60 cells were pelleted and resuspended in HBSS (Invitrogen, Waltham, MA, USA) supplemented with 25 mM HEPES (pH 7.4) and 100 µM DTPA to a cell density of 2 × 10^5 cells/mL. dHL60 cells were added to the V-bottom plates at a volume of 210 µL/well. Next, cells were incubated with inhibitors for 30 min at 37 °C in a CO2-free incubator under ambient oxygen and then transferred to black, clear-bottom 96-well plates (200 µL/well) after incubation. Freshly prepared PMA plus probe solutions in HBSS (5× concentrated, 50 µL/well) included PMA (5 µM) with CBA (500 µM) or with Amplex Red (250 µM) plus HRP (0.5 U/mL) for H2O2 detection, or with HE (50 µM) plus DNA (0.5 mg/mL) for O2^•− detection. Once probes + PMA were added, plates were sealed with sealing film and immediately placed in the pre-warmed plate readers (37 °C). Fluorescence intensities were monitored kinetically from the bottom of the plates every 1.3 min for a period of 2 h using Beckman Coulter (Brea, CA, USA) DTX880 and BMG Labtech (Ortenberg, Germany) FLUOstar Omega plate readers. DMSO alone and DPI (10 µM) were used as negative and positive controls, respectively. […] The IC50 values were determined using at least five independent measurements, each consisting of technical quadruplicates per concentration.

[2] = target: T1, Nox2; experiment: Rapid HPLC analysis of HE oxidation (2-OH-E+) for O2•− production by activated dHL60 cells; type: cell-based; settings: 1 h incubation after PMA, Figure 5D,E
Experimental: For high-performance liquid chromatography (HPLC)-based analyses of superoxide production by activated dHL60 cells, the cells (0.8 mL, 2 × 10^5 cells/mL) were pretreated with inhibitors for 30 min, as described above, followed by the addition of 200 µL of the mixture of PMA (5 µM) and HE (50 µM); then, they were incubated for 1 h at 37 °C in the dark. Next, 0.5 mL aliquots of the cell suspensions were transferred into 1.5 mL microcentrifuge tubes prefilled with 10 µL of a mixture of 3,8-diamino-6-phenylphenanthridine (50 µM, used as an internal standard), superoxide dismutase, and catalase (5 mg/mL and 5 kU/mL, respectively, used to stop probe oxidation), and the tubes were centrifugated (5 min, 3000× g) to pellet the cells. Clear supernatants (0.2 mL) were transferred into HPLC vials and analyzed for HE, 2-hydroxyethidium (2–OH–E^+), ethidium (E^+), and diethidium (E^+–E^+) content, as described previously. Briefly, an Agilent 1100 HPLC system equipped with an Ascentis Express Phenyl-Hexyl column (50 mm × 4.6 mm, 2.7 µm, Supelco, Bellefonte, PA, USA) and absorption and fluorescence detectors was used. […] Samples (25 µL) were injected, and the products were detected by monitoring absorbance (290 and 370 nm) and fluorescence (exc. 370 nm, emi. 565 nm) signals.

IC50 [1]: 4.3 ± 1.3 µM
Compound: CN(C)CCCn1c(SCCc2c[nH]c3ccccc23)nc2ccc(F)cc2c1=O [TG15-132]
HE consumption and 2-OH-E+ formation (HPLC) [2]: inhibited by cell pretreatment with TG15-132 in a dose-dependent manner
